{"source": "patent US6303596A", "about": "“Use of taurolidine for treatment of leukemias” (priority 2000, dated 2001)", "key": {"REH": {"system": "REH", "assay": "LDH release (cell membrane integrity), REH", "assay_type": "cell-based", "settings": "Homo sapiens, 4 h, read-out: LDH (% of total)", "method": "(§1) FIGS. 8A and 8B depict cell viability and growth rates for REH cell line following taurolidine treatment, in terms of % trypan blue negative cells and % cell number, respectively. Cells were treated with various concentrations of taurolidine for 4 hours in AIM-V+0.01% BCS. After aliquots were collected for LDH assay, the remainder of the culture was rinsed in HBSS and resuspended in RPMI+10% BCS without taurolidine. Counts of trypan blue-negative cells (FIG. 8A), and total cell number (FIG. 8B), were recorded daily thereafter (with the measurement at Day 1 being made immediately after the 4 hour taurolidine treatment). Conditions were: no treatment (open circles); 25 μg/ml taurolidine (closed circles); 50 μg/ml taurolidine (open squares); 100 μg/ml taurolidine (closed squares); and vehicle alone (closed triangles). Doubling times were determined under each condition, and expressed as a percentage of the rate of doubling of untreated cells. […]\nIn these experiments, integrity of cell membranes following taurolidine treatment was assessed by exclusion of trypan blue and by measuring the release of LDH in MM6, K-562, HL-60, and REH cells. […] A parallel aliquot of cells was lysed by three cycles of freeze/thaw and the quantity of LDH released was taken to be 100%. […]\n^a LDH was measured immediately after four hour taurolidine treatment."}, "Jurkat cells": {"system": "Jurkat cells", "assay": "trypan blue exclusion, Jurkat", "assay_type": "cell-based, human", "settings": "25 μg/ml taurolidine", "method": "as §1, with “9A” for “8A”, “9B” for “8B”, “Jurkat” for “REH”, “9A),” for “8A),”, “9B),” for “8B),”, “cells. These values are located to the right of the growth curves in (FIG. 9B).” for “cells.”\nHL-60 cells treated with 50 μl taurolidine. In these samples, LDH present in the culture medium was 8.3±2.3% of that released by completely lysed cells, compared with 2.3±0.8% measured in control cultures. […] After 4 hour treatment, cells were rinsed and returned to growth medium and monitored for viability and growth over the following 3 days. […]"}, "MM6": {"system": "MM6", "assay": "TUNEL / propidium iodide flow cytometry, MM6", "assay_type": "cell-based, human", "settings": "for % TUNEL-positive: MM6, taurolidine 100 μg/ml or anisomycin 1 μg/ml for 4 h, assayed at 6 hours, mean ± SD", "method": "In the second method, DNA fragmentation was detected via TUNEL assay according to the manufacturer's instructions. With this methodology, 2×10^6 cells were fixed with 2% paraformaldehyde, permeabilized with 0.1% Triton X-100/0.1% citrate, incubated at 37° C. with terminal deoxynucleotidyl transferase and FITC-dUTP, rinsed and analyzed by flow cytometry. Enhanced FITC signal indicates apoptosis-specific DNA fragmentation. Gavriali, et al, \"Identification of programmed cell death in situ via specific labeling of nuclear DNA fragmentation,\" J Cell Biol 119:493 (1992). Parallel aliquots of unfixed cells were treated with PI and FITC-conjugated anti-CD14 and analyzed by flow cytometry, in order to identify cells with permeable cell membranes (since PI binds to DNA but is excluded from cells with intact plasma membranes) and also to determine the cell-specificity of the apoptotic signal.\nConsequently, TUNEL analysis was performed on PBMC at 3, 6, or 24 hours after treatment with 25 to 100 μg/ml taurolidine. Aliquots of harvested cells were also labeled with FITC-conjugated anti-CD14 antibodies and PI, which allowed identification of monocytes (CD14-positive cells) and cells with damaged cell membranes (PI-positive cells). […] Thus, nearly 75% of the monocytes were TUNEL-positive following treatment with 100 μg/ml taurolidine for six hours. Confirmation that the TUNEL-positive cells were monocytes was obtained by staining with FITC-conjugated anti-CD14.\nIn another study, TUNEL assays were performed on all cell lines 6 hours after cells were initially exposed to taurolidine (cells were treated for 4 hours, rinsed, and then incubated for 2 more hours before TUNEL assay was performed).\n. Taurolidine and anisomycin induced apoptosis in MM6, HL-60, and Jurkat cells (Table VIII). MM6 and HL-60 cells were similarly effected, with >80% TUNEL-positive cells after 6 hours. Jurkat cells were less sensitive, with approximately 50% of cells induced to undergo apoptosis after taurolidine treatment. After 6 hours, 73% of anisomycin-treated REH cells were apoptotic, with less than 20% of taurolidine-treated REH cells being TUNEL-positive. However, assay of cells 24 hours after\n^a Analysis by flow cytometry after staining cells with propidium\niodide and processing for TUNEL.\nData are percent of total cell-size events, and are expressed as mean ±\nCells were treated for 4 hours with taurolidine (100 μg/ml) or\nanisomycin (1 μg/ml), and then assayed at 6 hours."}, "[1]": {"settings": "septic patients, up to 20 grams for 2-5 consecutive days; cited from earlier work"}, "Monocytes": {"system": "Monocytes", "settings": "24-hour taurolidine treatment; cited from earlier work"}}}
{"compound": "O=S1(=O)CCN(CN2CCS(=O)(=O)NC2)CN1", "note": "[taurolidine, 4,4'-methylenebis(perhydro-1,2,4-thiadiazin 1,1-dioxide)]", "values": [{"measurement": "cytotoxicity at 50 µg/mL", "setting": "REH; 50 μg/ml", "value": 6, "unit": "%"}, {"measurement": "cytotoxicity at 100 µg/mL", "setting": "REH; 100 μg/ml", "value": 5, "unit": "%"}, {"measurement": "trypan blue staining after treatment", "setting": "Jurkat cells", "value": "did not show an increase in trypan blue staining"}, {"measurement": "cytotoxicity at 50 µg/mL", "setting": "MM6; Homo sapiens, MONO-MAC-6, 3 h, read-out: % Propidium Iodide Positive Cells", "value": 7, "unit": "%"}, {"measurement": "% TUNEL-positive", "setting": "MM6", "value": "80.9 ± 7.7", "unit": "%"}, {"measurement": "% TUNEL-positive", "setting": "MM6; listed as Taurolidine", "value": "> 80", "unit": "%"}, {"measurement": "onset of apoptosis after treatment", "setting": "MM6; MM6 cells", "value": "detectable within four to six hours"}, {"measurement": "% TUNEL-Negative Cells", "setting": "MM6; Mono Mac 6, 50 μg/ml, 3 hours", "value": 44, "unit": "%"}, {"measurement": "toxicity in humans", "setting": "[1]", "value": "has not been associated with toxicity"}, {"measurement": "LDH release by monocytes", "setting": "Monocytes", "value": "no increase in LDH release"}]}
